Results as given in the supplement of paper PMC10307832.

Assays:
Test in all cases: relative viability (nuclei count vs DMSO), 5 days (fraction); higher = more cells survive
[1] = compound: CC(C)(C)c1cc(NC(=O)Nc2ccc(-c3cn4c(n3)sc3cc(OCCN5CCOCC5)ccc34)cc2)no1 [Quizartinib] + CS(=O)(=O)CCNCc1ccc(-c2ccc3ncnc(Nc4ccc(OCc5cccc(F)c5)c(Cl)c4)c3c2)o1 [Lapatinib] (partner 2 µM)
Method in brief: (§1)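 Lung cancer cell lines were pin-tool dosed in 1536-well plates on the day after seeding, with either a lone drug or a fixed anchor-drug dose plus five library-drug doses (not always all listed) in √10 steps. Nuclei were counted on 4× images after 5 days. Relative viability is the ratio of treated-well to vehicle-well nuclei counts, with each value a median of duplicate plates.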

[2] = compound: COCC[n+]1c2c(n(Cc3cnccn3)c1C)C(=O)c1ccccc1C2=O [YM155] + Cc1cc(Nc2cc(N3CCN(C)CC3)nc(Sc3ccc(NC(=O)C4CC4)cc3)n2)n[nH]1 [Tozasertib] (partner 0.1 µM)
Method in brief: as §1

[3] = compound: COCC[n+]1c2c(n(Cc3cnccn3)c1C)C(=O)c1ccccc1C2=O [YM155] + Cc1nc(NC(=O)N2CCC[C@H]2C(N)=O)sc1-c1ccnc(C(C)(C)C(F)(F)F)c1 [Alpelisib] (partner 2 µM)
Method in brief: as §1

[4] = compound: COCC[n+]1c2c(n(Cc3cnccn3)c1C)C(=O)c1ccccc1C2=O [YM155] + O=C(c1cc(Cc2n[nH]c(=O)c3ccccc23)ccc1F)N1CCN(C(=O)C2CC2)CC1 [Olaparib] (partner 8 µM)
Method in brief: as §1

## NCI-H2126
[1]; first compound 0.001 µM
  relative viability: 0.704
[1]; first compound 0.003162 µM
  relative viability: 0.705
[1]; first compound 0.01 µM
  relative viability: 0.744
[1]; first compound 0.03162 µM
  relative viability: 0.801
[1]; first compound 0.1 µM
  relative viability: 0.863
[2]; first compound 0.002 µM
  relative viability: 0.807
[2]; first compound 0.006325 µM
  relative viability: 0.88
[2]; first compound 0.02 µM
  relative viability: 0.948
[2]; first compound 0.06325 µM
  relative viability: 0.934
[3]; first compound 0.002 µM
  relative viability: 0.754
[3]; first compound 0.006325 µM
  relative viability: 0.76
[3]; first compound 0.02 µM
  relative viability: 0.77
[3]; first compound 0.06325 µM
  relative viability: 0.802
[4]; first compound 0.002 µM
  relative viability: 0.884
[4]; first compound 0.006325 µM
  relative viability: 0.921
[4]; first compound 0.02 µM
  relative viability: 0.935
[4]; first compound 0.06325 µM
  relative viability: 0.946

## EMC-BAC-2
[1]; first compound 0.001 µM
  relative viability: 0.809
[1]; first compound 0.003162 µM
  relative viability: 0.94
[1]; first compound 0.01 µM
  relative viability: 0.823
[1]; first compound 0.03162 µM
  relative viability: 0.671
[1]; first compound 0.1 µM
  relative viability: 0.946
[2]; first compound 0.002 µM
  relative viability: 0.265
[2]; first compound 0.006325 µM
  relative viability: 0.256
[2]; first compound 0.02 µM
  relative viability: 0.273
[2]; first compound 0.06325 µM
  relative viability: 0.275
[3]; first compound 0.002 µM
  relative viability: 0.735
[3]; first compound 0.006325 µM
  relative viability: 0.723
[3]; first compound 0.02 µM
  relative viability: 0.729
[3]; first compound 0.06325 µM
  relative viability: 0.719
[4]; first compound 0.002 µM
  relative viability: 0.444
[4]; first compound 0.006325 µM
  relative viability: 0.44
[4]; first compound 0.02 µM
  relative viability: 0.392
[4]; first compound 0.06325 µM
  relative viability: 0.301

## NCI-H1793
[1]; first compound 0.001 µM
  relative viability: 0.533
[1]; first compound 0.003162 µM
  relative viability: 0.743
[1]; first compound 0.01 µM
  relative viability: 0.82
[1]; first compound 0.03162 µM
  relative viability: 0.899
[1]; first compound 0.1 µM
  relative viability: 0.795
[2]; first compound 0.002 µM
  relative viability: 0.385
[2]; first compound 0.006325 µM
  relative viability: 0.38
[2]; first compound 0.02 µM
  relative viability: 0.369
[2]; first compound 0.06325 µM
  relative viability: 0.32
[3]; first compound 0.006325 µM
  relative viability: 0.601
[3]; first compound 0.02 µM
  relative viability: 0.659
[3]; first compound 0.06325 µM
  relative viability: 0.565
[4]; first compound 0.002 µM
  relative viability: 0.847
[4]; first compound 0.006325 µM
  relative viability: 0.824
[4]; first compound 0.02 µM
  relative viability: 0.91
[4]; first compound 0.06325 µM
  relative viability: 0.575

## NCI-H650
[1]; first compound 0.001 µM
  relative viability: 0.888
[1]; first compound 0.003162 µM
  relative viability: 0.754
[1]; first compound 0.01 µM
  relative viability: 0.726
[1]; first compound 0.03162 µM
  relative viability: 0.688
[1]; first compound 0.1 µM
  relative viability: 1.1
[2]; first compound 0.002 µM
  relative viability: 0.742
[2]; first compound 0.006325 µM
  relative viability: 0.686
[2]; first compound 0.02 µM
  relative viability: 0.764
[2]; first compound 0.06325 µM
  relative viability: 0.646
[3]; first compound 0.002 µM
  relative viability: 1.14
[3]; first compound 0.006325 µM
  relative viability: 1.07
[3]; first compound 0.02 µM
  relative viability: 1.15
[3]; first compound 0.06325 µM
  relative viability: 0.992
[4]; first compound 0.002 µM
  relative viability: 0.429
[4]; first compound 0.006325 µM
  relative viability: 0.345
[4]; first compound 0.02 µM
  relative viability: 0.409
[4]; first compound 0.06325 µM
  relative viability: 0.377

## NCI-H1437
[1]; first compound 0.001 µM
  relative viability: 0.738
[1]; first compound 0.003162 µM
  relative viability: 0.827
[1]; first compound 0.01 µM
  relative viability: 0.764
[1]; first compound 0.03162 µM
  relative viability: 0.45
[1]; first compound 0.1 µM
  relative viability: 0.543
[2]; first compound 0.002 µM
  relative viability: 0.421
[2]; first compound 0.006325 µM
  relative viability: 0.416
[2]; first compound 0.02 µM
  relative viability: 0.455
[2]; first compound 0.06325 µM
  relative viability: 0.276
[3]; first compound 0.002 µM
  relative viability: 0.958
[3]; first compound 0.006325 µM
  relative viability: 1.03
[3]; first compound 0.02 µM
  relative viability: 0.993
[3]; first compound 0.06325 µM
  relative viability: 0.835
[4]; first compound 0.002 µM
  relative viability: 0.618
[4]; first compound 0.006325 µM
  relative viability: 0.596
[4]; first compound 0.02 µM
  relative viability: 0.599
[4]; first compound 0.06325 µM
  relative viability: 0.387

## COR-L 105
[1]; first compound 0.001 µM
  relative viability: 0.362
[1]; first compound 0.003162 µM
  relative viability: 0.388
[1]; first compound 0.01 µM
  relative viability: 0.376
[1]; first compound 0.03162 µM
  relative viability: 0.409
[1]; first compound 0.1 µM
  relative viability: 0.352
[2]; first compound 0.002 µM
  relative viability: 0.345
[2]; first compound 0.006325 µM
  relative viability: 0.352
[2]; first compound 0.02 µM
  relative viability: 0.316
[2]; first compound 0.06325 µM
  relative viability: 0.327
[3]; first compound 0.002 µM
  relative viability: 1.1
[3]; first compound 0.006325 µM
  relative viability: 1.3
[3]; first compound 0.02 µM
  relative viability: 0.945
[3]; first compound 0.06325 µM
  relative viability: 0.588
[4]; first compound 0.002 µM
  relative viability: 0.584
[4]; first compound 0.006325 µM
  relative viability: 0.715
[4]; first compound 0.02 µM
  relative viability: 0.72
[4]; first compound 0.06325 µM
  relative viability: 0.538

## CAL-12T
[1]; first compound 0.001 µM
  relative viability: 0.587
[1]; first compound 0.003162 µM
  relative viability: 0.716
[1]; first compound 0.01 µM
  relative viability: 0.667
[1]; first compound 0.03162 µM
  relative viability: 0.687
[1]; first compound 0.1 µM
  relative viability: 0.795
[2]; first compound 0.002 µM
  relative viability: 0.311
[2]; first compound 0.006325 µM
  relative viability: 0.336
[2]; first compound 0.02 µM
  relative viability: 0.376
[2]; first compound 0.06325 µM
  relative viability: 0.149
[3]; first compound 0.002 µM
  relative viability: 1.02
[3]; first compound 0.006325 µM
  relative viability: 1.29
[3]; first compound 0.02 µM
  relative viability: 0.921
[3]; first compound 0.06325 µM
  relative viability: 0.25
[4]; first compound 0.002 µM
  relative viability: 0.782
[4]; first compound 0.006325 µM
  relative viability: 0.735
[4]; first compound 0.02 µM
  relative viability: 0.625
[4]; first compound 0.06325 µM
  relative viability: 0.331

## IA-LM
[1]; first compound 0.001 µM
  relative viability: 0.983
[1]; first compound 0.003162 µM
  relative viability: 0.718
[1]; first compound 0.01 µM
  relative viability: 0.86
[1]; first compound 0.1 µM
  relative viability: 0.719
[3]; first compound 0.002 µM
  relative viability: 0.578
[3]; first compound 0.006325 µM
  relative viability: 0.907
[3]; first compound 0.02 µM
  relative viability: 0.738
[3]; first compound 0.06325 µM
  relative viability: 0.644
[4]; first compound 0.002 µM
  relative viability: 0.836
[4]; first compound 0.006325 µM
  relative viability: 0.891
[4]; first compound 0.02 µM
  relative viability: 0.879
[4]; first compound 0.06325 µM
  relative viability: 0.642

## ChaGo-K-1
[2]; first compound 0.002 µM
  relative viability: 0.22
[2]; first compound 0.006325 µM
  relative viability: 0.208
[2]; first compound 0.02 µM
  relative viability: 0.24
[2]; first compound 0.06325 µM
  relative viability: 0.236
[4]; first compound 0.002 µM
  relative viability: 0.364
[4]; first compound 0.006325 µM
  relative viability: 0.38
[4]; first compound 0.02 µM
  relative viability: 0.43
[4]; first compound 0.06325 µM
  relative viability: 0.385

## LU99A
[1]; first compound 0.001 µM
  relative viability: 0.857
[1]; first compound 0.003162 µM
  relative viability: 0.901
[1]; first compound 0.01 µM
  relative viability: 0.999
[1]; first compound 0.03162 µM
  relative viability: 1
[1]; first compound 0.1 µM
  relative viability: 0.968
[2]; first compound 0.002 µM
  relative viability: 0.26
[2]; first compound 0.006325 µM
  relative viability: 0.255
[2]; first compound 0.02 µM
  relative viability: 0.318
[2]; first compound 0.06325 µM
  relative viability: 0.265
[3]; first compound 0.002 µM
  relative viability: 0.541
[3]; first compound 0.006325 µM
  relative viability: 0.453
[3]; first compound 0.02 µM
  relative viability: 0.456
[3]; first compound 0.06325 µM
  relative viability: 0.439
[4]; first compound 0.002 µM
  relative viability: 0.269
[4]; first compound 0.006325 µM
  relative viability: 0.236
[4]; first compound 0.02 µM
  relative viability: 0.255
[4]; first compound 0.06325 µM
  relative viability: 0.262
